Experimental data taken from the OPERA property sets (Mansouri et al. 2018).

| Structure (SMILES) | logP |
| --- | --- |
| [O-][n+]1onc(Cc2ccccc2)c1Cc1ccccc1 | 3.65 |
| Cc1nonc1N | 0.09 |
| O=[N+]([O-])c1nonc1-c1ccccc1 | 2.63 |
| CCS(=O)(=O)c1no[n+]([O-])c1C | 0.65 |
| CNC(=O)c1nonc1C | 0.56 |
| [O-][n+]1onc2ccccc21 | 1.43 |
| c1ccc2n[se]nc2c1 | 1.64 |
| Cc1no[n+]([O-])c1N | -0.32 |
| COC(=O)c1c(C)no[n+]1[O-] | 0.69 |
| Cc1nonc1[N+](=O)[O-] | 0.97 |
| Cc1no[n+]([O-])c1Cc1ccccc1 | 2.22 |
| Cc1c(Cl)no[n+]1[O-] | 1.02 |
| Cc1nonc1C(N)=O | 0.31 |
| Cc1c(Cc2ccccc2)no[n+]1[O-] | 2.08 |
| Cc1no[n+]([O-])c1C=O | 1.29 |
| Cc1no[n+]([O-])c1C(N)=O | 0.36 |
| [O-][n+]1onc(-c2ccccc2)c1-c1ccccc1 | 3.64 |
| COC(=O)c1no[n+]([O-])c1C | 0.56 |

| Structure (SMILES) | logP |
| --- | --- |
| Cc1n[se]nc1C | 0.89 |
| COC(=O)c1nonc1C | 0.94 |
| Cc1c(C(N)=O)no[n+]1[O-] | 0.03 |
| Cc1nonc1C | 0.71 |
| Cc1no[n+]([O-])c1C | 0.23 |
| CCCc1nonc1C | 1.71 |
| c1cnon1 | 0.16 |
| Nc1nonc1N | -0.49 |
| Cc1no[n+]([O-])c1Cl | 0.9 |
| COC(=O)Nc1nonc1C | 0.42 |
| CNC(=O)Nc1nonc1C | 0.3 |
| Cc1c(N)no[n+]1[O-] | -0.17 |
| CC(=O)c1c(C)no[n+]1[O-] | 0.98 |
| Cc1c(C=O)no[n+]1[O-] | 1.02 |
| Cc1nsnc1C | 1.28 |
| CC(=O)c1no[n+]([O-])c1C | 0.8 |
| CCc1nonc1C | 1.18 |
| c1ccc2nsnc2c1 | 1.98 |

The remaining lines, values ahead:

| logP | Structure (SMILES) |
| --- | --- |
| 1.64 | [O-][n+]1onc(CO)c1-c1ccccc1 |
| 1.81 | Nc1nonc1-c1ccccc1 |
| 1.41 | Nc1nonc1NC(=O)c1ccccc1 |
| 2.36 | Cc1nonc1S(=O)(=O)c1ccccc1 |
| 3.83 | c1ccc(-c2nonc2-c2ccccc2)cc1 |
| 2.59 | Cc1nonc1-c1ccccc1 |
| 1.76 | Cc1nonc1S(=O)c1ccccc1 (stereo not given) |
| 2.92 | Cc1nonc1Sc1ccccc1 |
| 1.42 | Nc1c(-c2ccccc2)no[n+]1[O-] |
| 3.2 | Clc1nonc1-c1ccccc1 |
| 1.5 | Cc1c(S(=O)c2ccccc2)no[n+]1[O-] (stereo not given) |
| 2.17 | Cc1c(-c2ccccc2)no[n+]1[O-] |
| -0.23 | CC(=O)Nc1nonc1N |
| 1.92 | OCc1nonc1-c1ccccc1 |
| 1.75 | Cc1no[n+]([O-])c1S(=O)c1ccccc1 (stereo not given) |
| 0.17 | CC(=O)Nc1nonc1C |
| 2.61 | O=Cc1no[n+]([O-])c1-c1ccccc1 |
| 2.82 | [O-][n+]1onc(Cl)c1-c1ccccc1 |
| 2.63 | Cc1c(Sc2ccccc2)no[n+]1[O-] |
| 1.77 | [O-][n+]1onc(-c2ccccc2)c1CO |
| 2.21 | Cc1nonc1-c1ccccc1[N+](=O)[O-] |
| 2.74 | Cc1no[n+]([O-])c1Sc1ccccc1 |
| 2.16 | Cc1no[n+]([O-])c1-c1ccccc1 |
| 2.7 | [O-][n+]1onc(-c2ccccc2)c1Cl |
| 1.69 | c1ccc2nonc2c1 |
| 2.26 | Cc1no[n+]([O-])c1S(=O)(=O)c1ccccc1 |
| 2.92 | O=Cc1c(-c2ccccc2)no[n+]1[O-] |
| 1.47 | Nc1no[n+]([O-])c1-c1ccccc1 |
| 2.03 | Cc1c(S(=O)(=O)c2ccccc2)no[n+]1[O-] |
